# US5817640A (Gensia Pharmaceuticals, priority 1995, dated 1998)
# Entries after “also recorded” stand apart in the source; their conditions may differ.
# What was measured:
# [1] = Safety assessment / adverse events in CABG patients (Phase 2); format: in vivo, human; details: for Patients with one or more adverse events: placebo 29 of 37
# Procedure: In addition to the hemodynamic monitoring described above the following tests were performed at screening, on the first post-operative day and at discharge:
# 4. Any adverse events were recorded throughout by the investigator, who assessed their severity and the relationship of these adverse experiences to the treatment.
# 11. Adverse Effects. The incidence, severity and drug-relatedness of any adverse effects were tabulated by treatment group by decreasing incidence of such effects in the high dose group. Statistical analysis was not performed.
# [2] = Uric acid monitoring, Phase 3 CABG trial; format: in vivo, human; details: treated patients, data not shown
# Description: The uric acid concentrations of all patients in the study were monitored.
# [3] = system: patients undergoing coronary artery bypass graft (CABG) surgery; assay: Ejection fraction and hemodynamics (Phase 2); format: in vivo, human
# Procedure: During surgery, anesthesia was maintained by continuous infusion of fentanyl and midazolam. Routine clinical parameters were recorded using standard operating room monitoring equipment. Continuous 2-lead Holter ECG and TEE data were recorded. Standard surgical procedures (e.g., aorta cross-clamping, crystalloid cardioplegia, cardio-pulmonary bypass, hypothermia) were used. Anastomoses were constructed, aorta cross-clamp removed and patients were discontinued from bypass when body temperature was 37° C. The quality of anastomosis was judged by the surgeon. Difficulty in weaning from bypass was judged by need for one or more of the following: pacemaker, return to bypass, balloon pump or vasopressor administration. Hemodynamic measurements, including heart rate, arterial blood pressure, pulmonary capillary wedge pressure and cardiac output, were recorded before sternotomy, 15 and 30 min after bypass and upon chest closure. Radial artery and pulmonary artery pressures, myocardial and whole body temperature, O2 saturation, end-tidal CO2 and arterial blood gases were measured, and ECG recordings were obtained as clinically indicated. Hemodynamic variables (blood pressure, heart rate, pulmonary capillary wedge pressure) were controlled within 20% of baseline using prescribed regimens.
# During the post-operative period through the first post-operative day, morphine and midazolam were used for sedation and analgesia. The cardiovascular medications required were recorded. During this period, continuous ECG monitoring (Holter) was performed for up to 48 hours. Hemodynamic measurements (pulmonary artery pressures and cardiac output) were obtained at 2, 4, 8 and 12 hours (in some cases at 24 and 48 hours) and also whenever clinically indicated.
# A twelve-lead ECG was obtained on arrival in the intensive care unit and during post-operative days 1, 2, 3 and at hospital discharge. Creatinine phosphokinase MB band (CK-MB) was obtained every 8 hours for 48 hours and when indicated. Radio-nuclide ventriculography for ejection fraction and wall motion score was done about 14 days post-operation and as close to hospital discharge as possible. Other tests and measurements (e.g., chest x-ray, pulmonary artery wedge pressure (PCWP) were performed when clinically indicated for diagnosis or evaluation of myocardial infarction, or congestive heart failure. Timing and dose of all cardiovascular medications within 48 hours after surgery were recorded. The total dose of all analgesics during the 24-hour post-operative period was recorded. Fluid intake and output (e.g., blood replacement and urine output) were recorded for 48 hours. The type and duration of inotropic support and antiarrhythmic intervention required were recorded through 24 hours after surgery. Two-channel Holter recordings were obtained during 3 periods, the eight hours prior to intubation, from intubation through the end of surgery, and for an additional 24-48 hours after surgery.
# 9. Election Fraction. Pre-operative and post-operative ejection fractions were measured using different methodologies; therefore, changes could not be analyzed statistically. Group mean injection fractions and pre- and post-CABG are presented and apparent differences between groups were described.
# Results for ejection fraction, measured on all patients pre-operatively (by angiography) and at the time of discharge from the intensive care unit (by radionuclide ventriculography) are given in Table 10 below.
# [4] = Plasma AICA riboside concentrations / pharmacokinetics in CABG patients (Phase 2); format: in vivo, human
# Procedure: 10. Plasma Levels. […] Individual values and group means were tabulated and drug clearance calculated. Dose proportionality was assessed.
# The data are also presented graphically in FIG. 3.
# [5] = Discoloration of liquid formulation during storage; format: physicochemical
compound,measurement,setting,value
"NC(=O)c1ncn([C@@H]2O[C@H](CO)[C@@H](O)[C@H]2O)c1N [AICA riboside, 5-amino-1-β-D-ribofuranosyl-imidazole-4-carboxamide]",Patients with one or more adverse events,[1]; 0.05 mg/kg/min,28/41
same,Patients with one or more adverse events,[1]; 0.1 mg/kg/min,30/35
same,Adverse events in individual patient,"[1]; 0.38 mg/kg/min, patient A5",no events other than S-T segment elevation on the ECG post-bypass
same,Frequency of adverse events vs placebo,"[1]; drug-treated patients, 0.05 and 0.1 mg/kg/min",no evidence that any of these events occurred more frequently in drug-treated patients compared with placebo
same,Tolerability,"[1]; first patients, 0.19 or 0.38 mg/kg/min",well tolerated
same,Serious adverse experiences,"[1]; first six patients, 0.19 or 0.38 mg/kg/min",no serious adverse experiences
same,Serum/urinary uric acid and crystalluria,"[1]; five drug-treated patients, 0.19 or 0.38 mg/kg/min",significant hyperuricemia and elevated urinary uric acid levels with crystalluria
same,Urine coloration,"[1]; five patients at 0.19 or 0.38 mg/kg/min, patient A14 at 0.05 mg/kg/min","same green coloration; also recorded: clear, green coloration"
same,Crystalluria,[2],no clinically significant crystalluria
same,Plasma uric acid concentrations vs normal range,[2],"generally remained in, or close to, the normal range"
same,"Uric acid concentrations, dose relation",[2],clear dose related increase in uric acid concentrations
same,Ejection fraction,"[3]; 0.05 mg/kg/min group, pre-bypass (pre-operative, LV angiography), placebo 57.6 ± 2.0, p=0.54",55.0 ± 2.3%
same,Ejection fraction,"[3]; 0.05 mg/kg/min, post-bypass (radionuclide ventriculography), placebo 56.5 ± 2.3, p=0.28",59.0 ± 2.0%
same,Ejection fraction,"[3]; 0.10 mg/kg/min group, pre-bypass (pre-operative, LV angiography), placebo 57.6 ± 2.0, p=0.54",58.4 ± 2.4%
same,Ejection fraction,"[3]; 0.10 mg/kg/min, post-bypass (radionuclide ventriculography), placebo 56.5 ± 2.3, p=0.28",61.3 ± 1.7%
same,Effect on heart rate and blood pressure,[3]; CABG surgery,no effects of treatment with AICA riboside were seen on these parameters
same,Ejection fraction vs placebo,"[3]; post-operative, not statistically significant",higher mean ejection fractions post-bypass than the placebo group; also recorded: trend towards higher ejection fraction in the high dose AICA riboside group
same,Steady state plasma concentration,[4]; 0.05 mg/kg/min,approximately 2.5 μg/ml
same,Mean (±SEM) plasma AICA riboside concentration,"[4]; 0.05 mg/kg/min constant infusion, n=40, pre-bypass",2.66 ± 0.30 µg/mL
same,Mean (±SEM) plasma AICA riboside concentration,"[4]; 0.05 mg/kg/min, n=40, 1 hour post-infusion",0.32 ± 0.63 µg/mL
same,Mean (±SEM) plasma AICA riboside concentration,"[4]; 0.05 mg/kg/min, n=40, end infusion",1.83 ± 0.13 µg/mL
same,Mean (±SEM) plasma AICA riboside concentration,"[4]; 0.05 mg/kg/min, n=40, post-bypass",2.49 ± 0.13 µg/mL
same,Steady state plasma concentration,[4]; 0.1 mg/kg/min,~5.0 µg/mL
same,Mean (±SEM) plasma AICA riboside concentration,"[4]; 0.10 mg/kg/min constant infusion, n=31, pre-bypass",5.11 ± 0.20 µg/mL
same,Mean (±SEM) plasma AICA riboside concentration,"[4]; 0.10 mg/kg/min, n=31, 1 hour post-infusion",0.45 ± 0.03 µg/mL
same,Mean (±SEM) plasma AICA riboside concentration,"[4]; 0.10 mg/kg/min, n=31, end infusion",3.67 ± 0.30 µg/mL
same,Mean (±SEM) plasma AICA riboside concentration,"[4]; 0.10 mg/kg/min, n=31, post-bypass",5.47 ± 0.19 µg/mL
same,"Kinetics (linearity, dose proportionality)","[4]; CABG patients, 0.05 and 0.1 mg/kg/min infusion",exhibits linear kinetics; also recorded: good dose proportionality
same,Plasma concentration as % of steady state level after end of infusion,[4]; one hour after infusion terminated,10%
same,Change of CLp during post-bypass period,[4]; post-bypass,trend for the CLp to increase
same,"Dose needed in anesthetized patients, % less than in non-anesthetized patients",[4]; to achieve desired blood concentration levels,20-50%
same,Stability of liquid formulation,[5],variable discoloration
